# Results published in paper PMC10287695, “Non-covalent inhibitors of thioredoxin glutathione reductase with schistosomicidal activity in vivo” (Nature Communications, 2023).
# Assays:
# [1] = molecular target: T1, S. mansoni TGR (Schistosoma mansoni, UniProt Q962Y6); experiment: S. mansoni TGR enzyme inhibition (DTNB reduction); type: biochemical; details: 6 h preincubation (enzyme + 100 µM NADPH + compound)
# T1 construct: made in house
# T1 sequence (Q962Y6 1-598): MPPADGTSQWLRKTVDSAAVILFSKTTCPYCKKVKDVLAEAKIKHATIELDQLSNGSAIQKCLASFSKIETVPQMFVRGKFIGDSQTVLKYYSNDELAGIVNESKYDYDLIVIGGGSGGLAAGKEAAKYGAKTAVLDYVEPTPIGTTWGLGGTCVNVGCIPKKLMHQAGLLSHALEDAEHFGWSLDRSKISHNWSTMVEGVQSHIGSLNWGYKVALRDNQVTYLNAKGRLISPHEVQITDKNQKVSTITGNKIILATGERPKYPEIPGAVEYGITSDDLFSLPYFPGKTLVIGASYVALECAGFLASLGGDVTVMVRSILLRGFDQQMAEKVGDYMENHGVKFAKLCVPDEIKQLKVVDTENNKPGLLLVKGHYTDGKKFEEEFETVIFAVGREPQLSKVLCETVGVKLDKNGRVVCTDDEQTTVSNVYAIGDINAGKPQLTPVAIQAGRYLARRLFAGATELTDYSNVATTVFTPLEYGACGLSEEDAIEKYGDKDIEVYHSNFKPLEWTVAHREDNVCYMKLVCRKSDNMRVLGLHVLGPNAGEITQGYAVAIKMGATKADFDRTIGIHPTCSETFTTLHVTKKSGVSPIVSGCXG
# [2] = system: S. mansoni adult worms; experiment: GSH/GSSG ratio in ex vivo adult worms; type: cell-based; details: first data set (r117-133); for Ratio GSH/GSSG: baseline 55.82; for % Ratio GSH/GSSG: baseline = 100
# [3] = molecular target: T2, Human TrxR1 (Homo sapiens, UniProt Q16881); experiment: Human TrxR1 enzyme inhibition (DTNB reduction); type: biochemical; details: 66.7 µM, 6 h preincubation
# T2 construct: made in house
# T2 sequence (Q16881 1-499 isoform Q16881-5): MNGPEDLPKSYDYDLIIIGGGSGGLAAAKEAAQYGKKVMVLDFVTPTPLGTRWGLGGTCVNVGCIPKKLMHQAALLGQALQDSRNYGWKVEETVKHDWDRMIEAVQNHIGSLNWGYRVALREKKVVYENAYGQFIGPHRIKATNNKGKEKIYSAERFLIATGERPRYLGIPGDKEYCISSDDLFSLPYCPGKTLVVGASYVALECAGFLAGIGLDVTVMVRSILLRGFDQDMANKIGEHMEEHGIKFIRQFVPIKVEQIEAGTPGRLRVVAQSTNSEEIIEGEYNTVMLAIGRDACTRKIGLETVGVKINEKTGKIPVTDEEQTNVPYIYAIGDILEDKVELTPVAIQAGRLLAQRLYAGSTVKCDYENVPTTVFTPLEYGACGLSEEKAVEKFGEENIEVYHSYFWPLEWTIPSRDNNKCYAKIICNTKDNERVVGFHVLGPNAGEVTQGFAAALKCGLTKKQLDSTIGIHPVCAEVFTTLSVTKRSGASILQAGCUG
smiles,measurement,setting,value
"O=C(C1CCCCC1)N1CC(=O)N2CCc3ccccc3C2C1 (stereo not drawn) [PZQ, praziquantel]",S. mansoni TGR inhibition (%) at 66.7 µM,[1],n.i.^e
same,Ratio GSH/GSSG,[2]; 1 hr,55.34
same,% Ratio GSH/GSSG,[2]; 1 hr,99.1418%
same,Ratio GSH/GSSG,[2]; 3 hr,55.09
same,% Ratio GSH/GSSG,[2]; 3 hr,98.6979%
same,Human TrxR1 IC50 (µM) or inhibition (%) at 66.7 µM: inhibition,[3],n.i.^e
